# Experimental data from patent US20090297492A1, “Method for Improving Cognitive Performance” (YAMAHA HATSUDOKI KABUSHIKI KAISHA, priority 2008, published 2009).
# Experiments:
# [1] = test system: healthy males aged 50 to 69; test: CogHealth cognitive function test (task-switching) with administration of astaxanthin; type: in vivo, human; settings: for Simple reaction, average reaction time: 10 subjects
# Text: CogHealth, mentioned above, is based on task-switching that is used for evaluating higher brain functions (executive functions), such as the suppression of an action or the reorganization of information processing (A. F. Kramer et al., Nature, Vol. 400, pp. 418-419 (1999), N. J. Cepeda et al, Developmental Psychology, Vol. 37, No. 5, pp. 715-730 (2001), and S. Hsieh and L. C. Liu, Brain Res. Cogn. Brain Res., Vol. 22, No. 2, pp. 165-175 (2005)). Furthermore, fMRI analysis of brain proves that frontal lobe activity and task-switching relate to each other, and thus CogHealth is accepted as a frontal lobe function test. […] In CogHealth measurement, analysis is performed by calculating an average RT (reaction time) for each task.
# “Simple reaction” refers to a task of pressing a button when a card is flipped from face-down to face-up. “Choice reaction” refers to a task of pressing a button based on the judgment of whether the card flipped from face-down to face-up is red or black. In other words, the simple reaction and the choice reaction are tasks relating to reaction time and suppression time in the function of the human frontal lobe. The simple reaction time is the time taken to perform one reaction to one sensory stimulus, and the choice reaction time is the time necessary to recognize a type of a given stimulus, and to make a reaction depending on the type in a predetermined manner.
# “Working memory” refers to a task of pressing a button based on the judgment of whether or not a flipped card is the same as the preceding card. “Delayed recall” refers to a task of pressing a button based on the judgment of whether or not a flipped card is the same as a card that was present in the delayed recall task. “Working memory” and “delayed recall” are tasks for measuring memory, such as immediate memory and episodic memory. Working memory is a concept that includes not only information storage for a short period but also cognitive information processing. Working memory is memory used for a very short period of time in units of seconds, but the delayed recall is memory used for a period of time slightly longer than that of the working memory.
# “Divided attention” refers to a task of pressing a button when at least one of five cards moving up and down is brought into contact with an upper or lower set line, and is a task for measuring spatially divided attention ability. In other words, such divided attention is an ability not to concentrate on one point but to allocate attention to the surroundings (spatially divided attention ability or spatially allocated attention ability). The meaning of divided attention is entirely different from attention scattering.
# The astaxanthin-containing soft capsules (each capsule contains 3 mg of astaxanthin) were administered to the test subjects by ingestion of two capsules with water twice a day after eating breakfast and supper. The administration period was 12 weeks.
# In this example, in order to evaluate cognitive function, measurement using CogHealth (based on task-switching) and P300 (one of the event-related potentials of an electroencephalogram) was performed at 6 weeks and 12 weeks after starting administration.
# The average RT (reaction time) was calculated for each of the tasks “simple reaction”, “choice reaction”, “working memory”, “delayed recall”, and “divided attention”. For two memory tasks (“working memory” and “delayed recall”), analysis was performed by also calculating the average AR (correct answer ratio).
# For each index, a multiple comparison (Dunnet) was performed to obtain the P value. Regarding the result of P300, a Student's t-test was used additionally as a comparison before and after ingestion.
# [2] = test system: healthy males aged 50 to 69; test: P300 event-related potential of electroencephalogram, auditory oddball paradigm; type: in vivo, human
# Text: On the other hand, event-related potential, which is a type of electroencephalogram, is a method for measuring cognitive functions by measuring the activity of the cerebral nerves during cognitive work. In particular, the P300 (P3b) component of event-related potential has been used to estimate the mental work load (A. F. Kramer and T. Weber, Handbook of psychophysiology (2nd Edition), J. T. Cacioppo et al. (Eds.), New York, Cambridge University Press, (2000) pp. 794-814). In a state where two tasks are simultaneously executed, when one task is made difficult (or the priority of one task is increased), the execution performance of the other task is lowered. Based on a study using such a dual-task method, the P300 amplitude is considered to clearly reflect the cognitive functions in the perception-central nerve level that caused the amplitude (E. Donchin et al., Psychophysiology: Systems, processes, and applications, M. G. H. Coles et al. (Eds.), New York, Guilford Press, (1986) pp. 702-718). That is to say, the P300 amplitude reflects the degree of attention, the degree of concentration, and the degree of cognitive load, for a task of recognizing surroundings.
# In a P300 test, for example, an auditory oddball paradigm can be employed. […] Then, a change in the obtained amplitude before and after ingestion is measured based on the Grand Average. […]
# In the electroencephalogram, an auditory oddball paradigm was used in which two types of sounds consisting of a high-pitched sound having a frequency of 2 KHz and a low-pitched sound having a frequency of 1 KHz were emitted from a headphone, and the test subjects were instructed to press a button as quickly and accurately as possible at the moment when the test subjects heard the high-pitched sound. […] The evoked electroencephalograms were measured with the frontal polar (Fpz) electrode as ground, and two linked electrode attached to the left and right earlobes as reference. […]
# [3] = After 6 weeks, two 3 mg capsules twice a day, oral, Mean ± SD
# [4] = After 12 weeks, two 3 mg capsules twice a day, oral, Mean ± SD
structure (smiles),measurement,setting,value
CC1=C(/C=C/C(C)=C/C=C/C(C)=C/C=C/C=C(C)/C=C/C=C(C)/C=C/C2=C(C)C(=O)[C@@H](O)CC2(C)C)C(C)(C)C[C@H](O)C1=O [astaxanthin],"Choice reaction, average reaction time",[1]; [3],480.63 ± 39.87 ms
same,Delayed recall (Correct answer rate: %),[1]; [3],71.19 ± 5.98%
same,"Delayed recall, average reaction time",[1]; [3],975.40 ± 190.75 ms
same,"Divided attention, average reaction time",[1]; [3],419.52 ± 59.32 ms
same,"Working memory, average reaction time",[1]; [3],732.95 ± 174.83 ms
same,"Simple reaction, average reaction time",[1]; [3],303.31 ± 33.80 ms
same,"Choice reaction, average reaction time",[1]; [4],463.63 ± 26.49 ms
same,Delayed recall (Correct answer rate: %),[1]; [4],70.71 ± 8.91%
same,"Delayed recall, average reaction time",[1]; [4],916.77 ± 151.04 ms
same,"Divided attention, average reaction time",[1]; [4],412.07 ± 51.97 ms
same,Working memory (Correct answer rate: %),[1]; [4],96.30 ± 3.94%
same,"Working memory, average reaction time",[1]; [4],654.83 ± 128.42 ms
same,"Simple reaction, average reaction time",[1]; [4],281.76 ± 33.56 ms
same,Change in reaction time for divided attention,"[1]; before ingestion versus 6 weeks after ingestion, P=0.034",significant reduction
same,"Change in reaction time, all tasks","[1]; before ingestion versus 12 weeks after ingestion, P=0.013 to 0.034",significantly reduced
same,"Effect on agility, judging ability and spatially allocated attention ability",[1]; overall conclusion from CogHealth,an effect of improving agility
same,"Change in reaction time, all tasks of CogHealth",[1]; versus before ingestion,a reduction in reaction time was confirmed
same,"Change in correct answer ratio, working memory","[1]; versus before ingestion, P=0.045",significant increase
same,"Change in correct answer ratio, delayed recall","[1]; versus before ingestion, P=0.991",no significant change
same,P300 Amplitude,"[2]; After 12 weeks, at Fz, two 3 mg capsules twice a day, oral, Mean ± SD",−10.54 ± 3.39 μV
same,Change in P300 amplitude at Fz,"[2]; multiple comparisons, before/after comparison P=0.057",no significant change
same,Effect on concentration on the recognition of surroundings,[2]; overall conclusion from P300,an effect of improving concentration on the recognition of surroundings
